The text below walks through data of patent US20250388605A1, “HETEROBIFUNCTIONAL COMPOUNDS AND METHODS OF TREATING DISEASE” (Halda Therapeutics OpCo, Inc., priority 2022, published 2025).

In assay [1] the test system is T-Rex 293 cell line SC3 cells having increased expression of androgen receptor protein due to exposure to doxycycline. Put plainly: Cellular growth inhibition, T-Rex 293 SC3 cells with doxycycline (increased androgen receptor expression), CellTiter-Glo. Conditions: T-Rex 293 SC3 cells with 10 ng/mL doxycycline (increased androgen receptor expression), 72 hours, CellTiter-Glo 2.0. The assay is classed as cell-based. A digest of the protocol:
(§1)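 Doxycycline (10 ng/mL) was either included or omitted to toggle wild-type androgen receptor expression in SC3 cells, a T-Rex 293 clone, grown in stripped-serum, phenol red-free medium. After 72 hours with compound, viable cells were quantified by CellTiter-Glo 2.0.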
(Cellular ATP, detected with luciferase, serves as a proxy for viable cell number.)

The test system of assay [2] is T-Rex 293 cell line SC3 cells lacking increased expression of androgen receptor protein. Kind of assay: Cellular growth inhibition, T-Rex 293 SC3 cells without doxycycline (no increased androgen receptor expression), CellTiter-Glo. Conditions: T-Rex 293 SC3 cells not exposed to doxycycline (no increased androgen receptor expression), 72 hours. The assay is classed as cell-based. A digest of the protocol: as §1

The next assay deals with VCaP cells. Kind of assay: Cellular growth inhibition assay for VCaP cells, CellTiter-Glo. It is filed as cell-based, human. Conditions: 72 hours. A digest of the protocol: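 GI50 values come from four-parameter curve fits of luminescence data normalized to a zero baseline. Compound, in medium with 0.5% DMSO, was added one day after plating and left for 72 h before CellTiter-Glo 2.0 addition.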

The test system of another assay is T47D cells. Kind of assay: Cellular Growth Inhibition Assay for T47D Cells (CellTiter-Glo). It is filed as cell-based, human. Conditions: 72 hours. A digest of the protocol:
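GI50 values derive from four-parameter regression of CellTiter-Glo 2.0 luminescence, using zero luminescence as baseline. Human breast cancer T47D cells (3000/well; DMEM, 10% FBS, 0.2 units/mL insulin) were exposed for 72 h to compound dilutions at 0.5% DMSO, with dosing starting 24 h after seeding.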

By GI50 is commonly meant the concentration at which growth is held to half of that of the control. As for `Cn1cc(-c2ccccc2Oc2cccc(CCCN3CCN(c4ncc(C(=O)NC5C(C)(C)C(Oc6ccc(C#N)c(Cl)c6)C5(C)C)cn4)CC3)c2)c2cc[nH]c2c1=O` (centres unmarked) [Compound I-134, N-[3-(3-chloro-4-cyano-phenoxy)-2,2,4,4-tetramethyl-cyclobutyl]-2-[4-[3-[3-[2-(6-methyl-7-oxo-1H-pyrrolo[2,3-c]pyridin-4-yl)phenoxy]phenyl]propyl]piperazin-1-yl]pyrimidine-5-carboxamide], the 50% growth inhibitory concentration (GI50) in assay [1] is < 500 nM; in assay [2], 500 to 1500 nM; in the assay on VCaP cells (Homo sapiens), < 500 nM; in the assay on T47D cells (Homo sapiens), 500 to 1500 nM.

For the compound `CC(C)N(CCOC1CCN(c2ncc(C(=O)N[C@H]3C(C)(C)[C@H](Oc4ccc(C#N)c(Cl)c4)C3(C)C)cn2)CC1)c1cccc(Oc2ccc(C(C)(C)O)cc2-c2cn(C)c(=O)c3[nH]ccc23)c1F` [Compound I-209], the GI50 (in assay [1]; in assay [2]; in the assay with VCaP cells; with T47D cells) was < 500 nM each time.

For the compound `Cn1cc(-c2cc([N+](=O)[O-])ccc2Oc2cccc(OCCOC3CCN(c4ncc(C(=O)N[C@H]5C(C)(C)[C@H](Oc6ccc(C#N)c(Cl)c6)C5(C)C)cn4)CC3)c2)c2cc[nH]c2c1=O` [Compound I-63, N-((1r, 3r)-3-(3-chloro-4-cyanophenoxy)-2,2,4,4-tetramethylcyclobutyl)-2-(4-(2-(3-(2-(6-methyl-7-oxo-6,7-dihydro-1H-pyrrolo[2,3-c]pyridin-4-yl)-4-nitrophenoxy)phenoxy)ethoxy)piperidin-1-yl)pyrimidine-5-carboxamide], the GI50 is < 500 nM in assay [1], > 3000 nM in assay [2], < 500 nM in the assay on VCaP cells (Homo sapiens) and 500 to 1500 nM in the assay on T47D cells (Homo sapiens).

Regarding `CCS(=O)(=O)Nc1ccc(Oc2cccc(C3CC(N(C)C4CCN(c5ncc(C(=O)N[C@H]6C(C)(C)[C@H](Oc7ccc(C#N)c(Cl)c7)C6(C)C)cn5)CC4)C3)c2)c(-c2cn(C)c(=O)c3[nH]ccc23)c1` (some centres unmarked) [Compound I-129], the GI50 (in assay [1]; in assay [2]; in the assay on VCaP cells; in the assay on T47D cells) was < 500 nM throughout.

Take `CCS(=O)(=O)Nc1ccc(Oc2cccc(N(C)C3CCN(C4CCN(c5ncc(C(=O)N[C@H]6C(C)(C)[C@H](Oc7ccc(C#N)c(Cl)c7)C6(C)C)cn5)CC4)C3)c2)c(-c2cn(C)c(=O)c3[nH]ccc23)c1` (some centres unmarked) [Compound I-42]: the GI50 (in assay [1]; in assay [2]; with VCaP cells (Homo sapiens); with T47D cells (Homo sapiens)) was < 500 nM each time.

`Cn1cc(-c2cc(S(C)(=O)=O)ccc2Oc2cccc(N3CC(OC4CCN(c5ncc(C(=O)N[C@H]6C(C)(C)[C@H](Oc7ccc(C#N)c(Cl)c7)C6(C)C)cn5)CC4)C3)c2F)c2cc[nH]c2c1=O` [Compound I-191]: the GI50 (in assay [1]; in assay [2]; with VCaP cells; in the assay with T47D cells) was < 500 nM each time.

Take `Cn1cc(-c2cc(C(C)(C)O)ccc2Oc2ccc(CCOC3CCN(c4ncc(C(=O)N[C@H]5C(C)(C)[C@H](Oc6ccc(C#N)c(Cl)c6)C5(C)C)cn4)CC3)cn2)c2cc[nH]c2c1=O` [Compound I-315]: the GI50 in assay [1] is < 500 nM; in assay [2], > 3000 nM; with VCaP cells (Homo sapiens), < 500 nM; with T47D cells (Homo sapiens), 500 to 1500 nM.

Consider `CC(=O)Nc1ccc(Oc2cccc(OCCOC3CCN(c4ncc(C(=O)N[C@H]5C(C)(C)[C@H](Oc6ccc(C#N)c(Cl)c6)C5(C)C)cn4)CC3)c2)c(-c2cn(C)c(=O)c3[nH]ccc23)c1` [Compound I-57, 2-(4-(2-(3-(4-acetamido-2-(6-methyl-7-oxo-6,7-dihydro-1H-pyrrolo [2,3-c]pyridin-4-yl)phenoxy)phenoxy)ethoxy)piperidin-1-yl)-N-((1r, 3r)-3-(3-chloro-4-cyanophenoxy)-2,2,4,4-tetramethylcyclobutyl)pyrimidine-5-carboxamide], for which the GI50 in assay [1] was < 500 nM; in assay [2], 500 to 1500 nM; with VCaP cells (Homo sapiens), < 500 nM; in the assay with T47D cells (Homo sapiens), < 500 nM.
